The source of these data is publication PMC6956230, “Sequence Determinants of Substrate Ambiguity in a HAD Phosphosugar Phosphatase of Arabidopsis Thaliana” (Biology, 2019).

For assay [1], the target named is T1, AtSgpp (MBP-AtSgpp) (Arabidopsis thaliana, UniProt Q9ZVJ5, DEL53-55).
T1 construct: gene SGPP; full-length coding region (735 bp EcoRI/SalI fragment) in pMAL-c2x; N-terminal MBP fusion kept, vector residues Ile-Ser-Glu-Phe before Met1; expressed in E. coli TB1 with pSBETa; amylose resin
T1 sequence (Q9ZVJ5 with tags, fused parts or gaps DEL53-55): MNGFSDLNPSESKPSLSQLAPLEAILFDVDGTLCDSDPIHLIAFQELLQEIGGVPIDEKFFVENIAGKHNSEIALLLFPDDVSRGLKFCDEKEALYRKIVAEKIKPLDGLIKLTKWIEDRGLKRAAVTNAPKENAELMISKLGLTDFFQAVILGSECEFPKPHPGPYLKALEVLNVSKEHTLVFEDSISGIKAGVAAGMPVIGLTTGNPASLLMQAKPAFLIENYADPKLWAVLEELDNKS
The assay is described as follows: phosphate release, molybdate/ascorbic acid assay, Lineweaver-Burk. Type of assay: biochemical. The conditions noted are these: 20 mM Tris-HCl pH 7.0, 5 mM MgCl2, 32 °C, MBP fusion, brackets: 95% CI and [SD]. The source says:
(§1) phosphate release, molybdate/ascorbic acid assay, Lineweaver-Burk on AtSgpp (MBP-AtSgpp)

For assay [2], the target named is T2, AtSgpp (MBP-AtSgpp) (Arabidopsis thaliana, UniProt Q9ZVJ5).
T2 construct: gene SGPP; full-length coding region (735 bp EcoRI/SalI fragment) in pMAL-c2x; N-terminal MBP fusion kept, vector residues Ile-Ser-Glu-Phe before Met1; expressed in E. coli TB1 with pSBETa; amylose resin
T2 sequence (Q9ZVJ5 1-244): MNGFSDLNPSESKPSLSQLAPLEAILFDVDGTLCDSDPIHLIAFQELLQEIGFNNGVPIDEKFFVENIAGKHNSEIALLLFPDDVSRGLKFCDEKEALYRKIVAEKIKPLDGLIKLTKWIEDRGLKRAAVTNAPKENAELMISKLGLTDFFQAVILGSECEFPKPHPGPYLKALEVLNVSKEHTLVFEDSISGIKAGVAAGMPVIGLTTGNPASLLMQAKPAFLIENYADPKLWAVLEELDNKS
The description is as above. As to conditions: 20 mM Tris-HCl pH 7.0, 5 mM MgCl2, 32 °C, MBP fusion, brackets: 95% CI and [SD]. In kind it is biochemical.
Description: as §1

Consider `O=P(O)(O)OCC(O)CO` (racemic) [DL-glycerol-3-phosphate], for which the “apparent Km” value on AtSgpp (MBP-AtSgpp) [1] was 14 (13.7–14.3) × 10^−3 [0.3] M; on AtSgpp (MBP-AtSgpp) [2] it was 7.3 (7.1–7.5) × 10^−3 [0.2] M.

`O=P(O)(O)OC[C@H]1OC(O)C[C@@H](O)[C@@H]1O` (stereo partly drawn) [2-deoxy-D-glucose-6-phosphate]: the “apparent Km” value was 4.7 (4.5–4.9) × 10^−3 [0.2] M on AtSgpp (MBP-AtSgpp) [1] and 4.6 (4–5.2) × 10^−3 [0.5] M at AtSgpp (MBP-AtSgpp) [2].

For `O=P(O)(O)OC[C@H]1OC(O)(CO)[C@@H](O)[C@@H]1O` (stereo partly drawn) [D-fructose-6-phosphate], the results for the “apparent Km” value at AtSgpp (MBP-AtSgpp) [1] and at AtSgpp (MBP-AtSgpp) [2] were 10 (9.5–10.5) × 10^−3 [0.4] M and 7.7 (7.3–8.1) × 10^−3 [0.4] M, respectively.

On to `O=P(O)(O)OC[C@H]1OC(O)[C@H](O)[C@@H](O)[C@@H]1O` (stereo partly drawn) [D-glucose-6-phosphate], for which the figures for the “apparent Km” value at AtSgpp (MBP-AtSgpp) [1] and on AtSgpp (MBP-AtSgpp) [2] were 8.3 (8–8.6) × 10^−3 [0.3] M and 7.1 (6.8–7.4) × 10^−3 [0.3] M, respectively.

On to `O=P(O)(O)OC[C@H]1OC(O)[C@@H](O)[C@@H](O)[C@@H]1O` (stereo partly drawn) [D-mannose-6-phosphate], for which the “apparent Km” value on AtSgpp (MBP-AtSgpp) [1] is 6.7 (6.6–6.8) × 10^−3 [0.1] M; at AtSgpp (MBP-AtSgpp) [2], 4.9 (4.2–5.6) × 10^−3 [0.6] M.

On to `O=P(O)(O)OC[C@H]1OC(O)[C@H](O)[C@@H]1O` (stereo partly drawn) [D-ribose-5-phosphate], for which the “apparent Km” value at AtSgpp (MBP-AtSgpp) [1] was 3.7 (3.5–3.9) × 10^−3 [0.2] M; at AtSgpp (MBP-AtSgpp) [2], 3.6 (3.5–3.7) × 10^−3 [0.1] M.
